{"source": "patent US12582104B2", "about": "“Mutant myocilin disease model and uses thereof” (Regeneron Pharmaceuticals, Inc., priority 2021, dated 2026)", "tested_on": "SAM-MYOC mice", "assay": "Intraocular pressure (IOP) in SAM-MYOC mice", "type": "in vivo, mouse", "details": "SAM-MYOC mice approximately 10 weeks after AAV2.Y3F-SAM-g4; one drop per eye; IOP at 2, 4, 6, and 24 hours", "procedure": "To validate the SAM mice comprising a humanized MYOC locus comprising a Y437H mutation (SAM-MYOC mice), SAM-MYOC mice homozygous or heterozygous for the humanized MYOC locus were treated with AAV2.Y3F-SAM-g4, AAV2.Y3F-SAM-g5, an AAV2.Y3F-SAM-LacZ control, or nothing (naïve). […] This validated the SAM-MYOC mice as a suitable MYOC disease model with increased IOP.\nIOP-lowering drugs used to treat glaucoma patients were then tested as a proof-of-concept to determine if they could lower the IOP observed in the SAM-MYOC mice following treatment with SAM-g4. We tested two IOP-lowering drugs: (1) timolol (a beta blocker that suppresses aqueous humor formation); and (2) RHOPRESSA® (a ROCK inhibitor that increases outflow of aqueous humor). […] At 0 hours, the IOP was measured, and each eye received one drop of either timolol or RHOPRESSA®, and IOP was measured at 2, 4, 6, and 24 hours after treatment.\nAn siRNA targeting human MYOC was then tested to determine if it could lower the high IOP observed in the SAM-MYOC mice following treatment with SAM-g4. SAM-g4 was administered via intracameral (IC) injection at day 0, and baseline IOP was measured. IOP was then measured over the following five weeks. At week five, MYOC siRNA #1 (1 μL, 15 μg dose) was administered via intravitreal (IVT) injection, and IOP was measured at various timepoints over the subsequent weeks. […]"}
{"smiles": "CC(C)(C)NC[C@H](O)COc1nsnc1N1CCOCC1", "note": "[timolol]", "values": [{"measurement": "IOP after IOP-lowering drug", "value": "effective at lowering IOP"}]}
